Measured values published in ChEMBL document CHEMBL3739366, “Discovery of HTL6641, a dual orexin receptor antagonist with differentiated pharmacodynamic properties” (Medchemcomm, 2015).
Calls of active or inactive are those of the source. The calls are words filed in the database; no cut-off is given here.

Test system: not listed separately
Experiment: Half life in rat liver microsomes
Type: ADME
Settings: not given

Q: Which half-life does the source give for `COc1cc(N2C(=O)N(Cc3c(F)cc(F)cc3F)c3ccccc3S2(=O)=O)ccn1` here?
A: 23 min

Q: With `COc1cc(F)c(CN2C(=O)N(c3cc(OC)nc(OC)c3)S(=O)(=O)c3ccccc32)c(F)c1` as the compound, how does the half-life read?
A: 16 min

Q: Which half-life does the source give for `COc1cc(N2C(=O)N(Cc3c(F)cc(F)cc3Cl)c3ccccc3S2(=O)=O)cnc1OC` here?
A: 23 min

Q: Which half-life does the source give for `COc1cc(N2C(=O)N(Cc3c(F)cc(F)cc3F)c3ccccc3S2(=O)=O)cc(OC)n1` here?
A: 16 min

Test system: Rattus norvegicus
Experiment: AUC (infinity) in Sprague-Dawley rat at 2 mg/kg, po
Type: ADME, organism-based
Parameters: dose 2 mg/kg, route oral, time infinity
Settings: in vivo

Q: For `COc1cc(N2C(=O)N(Cc3c(F)cc(F)cc3Cl)c3ccccc3S2(=O)=O)cnc1OC`, which AUC is on record?
A: 300 ng·h/mL

Q: Which AUC does the source give for `COc1cc(N2C(=O)N(Cc3c(F)cc(F)cc3F)c3ccccc3S2(=O)=O)cc(OC)n1` here?
A: 705 ng·h/mL

Biological target: T1, Orexin receptor type 2 (Homo sapiens) (UniProt O43614)
T1 sequence (whole entry): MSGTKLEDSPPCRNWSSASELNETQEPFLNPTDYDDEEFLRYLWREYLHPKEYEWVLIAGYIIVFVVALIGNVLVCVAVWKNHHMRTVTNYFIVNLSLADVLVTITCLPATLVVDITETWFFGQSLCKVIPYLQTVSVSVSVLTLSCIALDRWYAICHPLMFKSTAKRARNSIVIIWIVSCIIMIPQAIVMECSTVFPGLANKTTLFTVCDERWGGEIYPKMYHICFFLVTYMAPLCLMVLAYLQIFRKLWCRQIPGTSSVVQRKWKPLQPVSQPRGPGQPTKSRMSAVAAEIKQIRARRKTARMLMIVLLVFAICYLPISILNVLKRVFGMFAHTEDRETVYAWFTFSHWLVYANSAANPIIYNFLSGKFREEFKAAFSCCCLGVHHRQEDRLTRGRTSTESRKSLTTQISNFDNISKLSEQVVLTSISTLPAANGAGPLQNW
Settings: not given

Q: Which T1/2 does the source give for `Cc1ccc(-n2nccn2)c(C(=O)N2CCN(c3nc4cc(Cl)ccc4o3)CC[C@H]2C)c1` [SUVOREXANT] here?
A: 210 min

Test system: not listed separately
Experiment: Volume of distribution at steady state in Sprague-Dawley rat at 1 mg/kg, iv
Type: ADME, organism-based
Settings: in vivo, read-out: Vdss

Q: For `COc1cc(N2C(=O)N(Cc3c(F)cc(F)cc3Cl)c3ccccc3S2(=O)=O)cnc1OC`, which Vd is on record?
A: 3.5 L/kg

Q: Which Vd does the source give for `COc1cc(N2C(=O)N(Cc3c(F)cc(F)cc3F)c3ccccc3S2(=O)=O)cc(OC)n1` here?
A: 3.9 L/kg

Biological target: T2, Orexin/Hypocretin receptor type 1 (Homo sapiens) (UniProt O43613)
T2 sequence (whole entry): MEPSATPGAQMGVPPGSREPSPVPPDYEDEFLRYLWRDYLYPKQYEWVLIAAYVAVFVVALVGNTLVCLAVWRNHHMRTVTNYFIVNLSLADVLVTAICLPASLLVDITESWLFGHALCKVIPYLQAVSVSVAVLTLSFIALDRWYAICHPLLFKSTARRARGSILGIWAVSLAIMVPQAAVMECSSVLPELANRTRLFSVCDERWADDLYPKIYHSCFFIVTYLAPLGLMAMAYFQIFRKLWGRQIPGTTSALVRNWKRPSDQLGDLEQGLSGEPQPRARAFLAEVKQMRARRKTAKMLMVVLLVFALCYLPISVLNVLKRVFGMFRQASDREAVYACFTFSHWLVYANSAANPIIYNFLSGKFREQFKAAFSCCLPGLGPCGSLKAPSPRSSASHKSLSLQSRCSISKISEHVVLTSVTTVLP
Settings: not given

Q: With `Cc1ccc(-n2nccn2)c(C(=O)N2CCN(c3nc4cc(Cl)ccc4o3)CC[C@H]2C)c1` [SUVOREXANT] as the compound, how does the T1/2 read?
A: 24 min

Test system: not listed separately
Experiment: Clearance in Sprague-Dawley rat at 1 mg/kg, iv
Type: ADME, organism-based
Settings: in vivo

Q: With `COc1cc(N2C(=O)N(Cc3c(F)cc(F)cc3Cl)c3ccccc3S2(=O)=O)cnc1OC` as the compound, how does the clearance read?
A: 34 mL/min/kg

Q: For `COc1cc(N2C(=O)N(Cc3c(F)cc(F)cc3F)c3ccccc3S2(=O)=O)cc(OC)n1`, which clearance is on record?
A: 17 mL/min/kg

Test system: not listed separately
Experiment: Ratio of drug level in cerebrospinal fluid to brain in Sprague-Dawley rat at 1 mg/kg, iv after 0.5 hrs
Type: ADME, organism-based, CSF/Brain
Settings: in vivo

Q: Which Ratio does the source give for `COc1cc(N2C(=O)N(Cc3c(F)cc(F)cc3Cl)c3ccccc3S2(=O)=O)cnc1OC` here?
A: 0.02

Same assay, conditions: in vivo, BLD = below limit of detection

Q: For `COc1cc(N2C(=O)N(Cc3c(F)cc(F)cc3F)c3ccccc3S2(=O)=O)cc(OC)n1`, which Ratio is on record?
A: BLD

Test system: not listed separately
Experiment: Tmax in Sprague-Dawley rat at 2 mg/kg, po
Type: ADME, organism-based
Settings: in vivo

Q: Which Tmax does the source give for `COc1cc(N2C(=O)N(Cc3c(F)cc(F)cc3Cl)c3ccccc3S2(=O)=O)cnc1OC` here?
A: 48 min

Q: Which Tmax does the source give for `COc1cc(N2C(=O)N(Cc3c(F)cc(F)cc3F)c3ccccc3S2(=O)=O)cc(OC)n1` here?
A: 24 min

Test system: not listed separately
Experiment: Ratio of drug level in brain to plasma in Sprague-Dawley rat at 1 mg/kg, iv after 0.5 hrs
Type: ADME, organism-based
Settings: read-out: BPR

Q: With `COc1cc(N2C(=O)N(Cc3c(F)cc(F)cc3Cl)c3ccccc3S2(=O)=O)cnc1OC` as the compound, how does the Kp at 0.5 h read?
A: 0.79

Q: With `COc1cc(N2C(=O)N(Cc3c(F)cc(F)cc3F)c3ccccc3S2(=O)=O)cc(OC)n1` as the compound, how does the Kp at 0.5 h read?
A: 1.51

Test system: Rattus norvegicus
Experiment: Antiinsomnic activity in CD1 rat assessed as effect on sleep architecture at 30 mg/kg, po administered at 18 hrs at circadian time
Type: functional, organism-based
Settings: not given

Q: With `Cc1ccc(-n2nccn2)c(C(=O)N2CCN(c3nc4cc(Cl)ccc4o3)CC[C@H]2C)c1` [SUVOREXANT] as the compound, how does the Activity read?
A: Active

Test system: not listed separately
Experiment: Half life in Sprague-Dawley rat at 2 mg/kg, po
Type: ADME, organism-based
Settings: in vivo

Q: With `COc1cc(N2C(=O)N(Cc3c(F)cc(F)cc3Cl)c3ccccc3S2(=O)=O)cnc1OC` as the compound, how does the half-life read?
A: 108 min

Q: For `COc1cc(N2C(=O)N(Cc3c(F)cc(F)cc3F)c3ccccc3S2(=O)=O)cc(OC)n1`, which half-life is on record?
A: 198 min

Biological target: T3, Orexin/Hypocretin receptor type 1 (Homo sapiens, UniProt O43613)
T3 sequence (O43613 whole entry): T2 sequence (whole entry)
Experiment: Displacement of [3H]-4-(2,6-Difluoro-4-methoxybenzyl)-2-(5,6-dimethoxypyridin-3-yl)-2H-1,2,4-benzothiadiazin-3(4H)-one 1,1-dioxide from orexin receptor-1 (unknown origin) after 90 mins
Settings: not given

Q: For `COc1ccc(N2C(=O)N(Cc3ccc(Cl)cc3F)c3ccccc3S2(=O)=O)cc1OC`, which Ki is on record?
A: 0.0631 µM

Q: For `COc1cc(N2C(=O)N(Cc3c(F)cc(F)cc3F)c3ccccc3S2(=O)=O)ccn1`, which Ki is on record?
A: 0.398 µM

Q: Which Ki does the source give for `COc1cc(F)c(CN2C(=O)N(c3cc(OC)nc(OC)c3)S(=O)(=O)c3ccccc32)c(F)c1` here?
A: 0.001 µM

Q: For `COc1cc(N2C(=O)N(Cc3c(F)cc(F)cc3Cl)c3ccccc3S2(=O)=O)cnc1OC`, which Ki is on record?
A: 0.0398 µM

Q: For `COc1cc(N2C(=O)N(Cc3c(F)cc(F)cc3F)c3ccccc3S2(=O)=O)cc(OC)n1`, which Ki is on record?
A: 0.0158 µM

Test system: not listed separately
Experiment: Plasma concentration in Sprague-Dawley rat plasma at 1 mg/kg, po after 1 hr
Type: ADME, organism-based
Settings: not given

Q: With `Cc1ccc(-n2nccn2)c(C(=O)N2CCN(c3nc4cc(Cl)ccc4o3)CC[C@H]2C)c1` [SUVOREXANT] as the compound, how does the concentration at 1 h read?
A: 22 ng/mL

Biological target: T1, Orexin receptor type 2 (Homo sapiens)
Settings: not given
Remark: another data set of the same source

Q: For `Cc1ccc(-n2nccn2)c(C(=O)N2CCN(c3nc4cc(Cl)ccc4o3)CC[C@H]2C)c1` [SUVOREXANT], which T1/2 is on record?
A: 79 min

Test system: not listed separately
Experiment: Oral bioavailability in Sprague-Dawley rat at 2 mg/kg
Type: ADME, organism-based
Settings: in vivo

Q: With `COc1cc(N2C(=O)N(Cc3c(F)cc(F)cc3Cl)c3ccccc3S2(=O)=O)cnc1OC` as the compound, how does the bioavailability read?
A: 29%

Q: Which bioavailability does the source give for `COc1cc(N2C(=O)N(Cc3c(F)cc(F)cc3F)c3ccccc3S2(=O)=O)cc(OC)n1` here?
A: 36%

Test system: Rattus norvegicus
Experiment: Ex-vivo receptor occupancy of orexin receptor-2 Sprague-Dawley rat frontal cortex using [3H]EMPA at 1 mg/kg, po after 1 hr by autoradiography relative to control
Type: functional
Settings: not given

Q: Which Occ does the source give for `Cc1ccc(-n2nccn2)c(C(=O)N2CCN(c3nc4cc(Cl)ccc4o3)CC[C@H]2C)c1` [SUVOREXANT] here?
A: 31%

Biological target: T4, Orexin receptor type 2 (Homo sapiens, UniProt O43614)
T4 sequence (O43614 whole entry): T1 sequence (whole entry)
Experiment: Displacement of [3H]EMPA from human orexin receptor-2 expressed in HEK293 cells after 90 mins by scintillation counting
Type: cell-based
Settings: not given

Q: With `COc1ccc(N2C(=O)N(Cc3ccc(Cl)cc3F)c3ccccc3S2(=O)=O)cc1OC` as the compound, how does the Ki read?
A: 0.01 µM

Q: With `COc1cc(N2C(=O)N(Cc3c(F)cc(F)cc3F)c3ccccc3S2(=O)=O)ccn1` as the compound, how does the Ki read?
A: 0.0631 µM

Q: With `COc1cc(F)c(CN2C(=O)N(c3cc(OC)nc(OC)c3)S(=O)(=O)c3ccccc32)c(F)c1` as the compound, how does the Ki read?
A: 0.000251 µM

Q: For `COc1cc(N2C(=O)N(Cc3c(F)cc(F)cc3Cl)c3ccccc3S2(=O)=O)cnc1OC`, which Ki is on record?
A: 0.00158 µM

Q: With `COc1cc(N2C(=O)N(Cc3c(F)cc(F)cc3F)c3ccccc3S2(=O)=O)cc(OC)n1` as the compound, how does the Ki read?
A: 0.00126 µM
